Measured values: ChEMBL document CHEMBL3856225, “Design, synthesis and biological evaluation of 5-benzylidene-2-iminothiazolidin-4-ones as selective GSK-3β inhibitors” (Eur J Med Chem, 2016)

What follows are compounds tested against T1, Glycogen synthase kinase-3 beta (Homo sapiens, UniProt P49841) (assay: Inhibition of His-tagged full length human recombinant GSK-3beta expressed in Baculovirus at 0.5 uM using Ser/Thr9 peptide as substrate by Z' LYTE assay relative to control).
Target sequence in this assay (P49841 whole entry, looked up): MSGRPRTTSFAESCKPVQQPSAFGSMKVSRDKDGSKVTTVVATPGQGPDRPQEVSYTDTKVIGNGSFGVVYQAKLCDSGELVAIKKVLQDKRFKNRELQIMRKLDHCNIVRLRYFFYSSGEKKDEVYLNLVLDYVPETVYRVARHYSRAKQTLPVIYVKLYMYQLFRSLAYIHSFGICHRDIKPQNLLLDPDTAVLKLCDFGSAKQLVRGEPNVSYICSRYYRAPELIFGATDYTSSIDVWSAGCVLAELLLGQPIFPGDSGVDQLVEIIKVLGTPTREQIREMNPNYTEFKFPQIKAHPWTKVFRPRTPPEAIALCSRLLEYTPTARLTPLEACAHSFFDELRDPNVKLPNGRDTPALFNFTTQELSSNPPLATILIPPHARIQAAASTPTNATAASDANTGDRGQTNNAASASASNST

Row | SMILES | inhibition [%]
1 | COc1cc(/C=C2\SC(=N)NC2=O)ccc1O | > 50
2 | O=C1N/C(=N/c2ccccc2)S/C1=C\c1ccc(F)cc1 | > 50
3 | COc1ccc(/C=C2\S/C(=N\Cc3ccccc3)NC2=O)cc1OC | > 50
4 | O=C1N=C(NCc2ccccc2)S/C1=C\c1ccc(O)cc1 | > 50
5 | COc1ccc(/C=C2\SC(=N)NC2=O)cc1OC | > 50
6 | O=C1N/C(=N/c2ccccc2)S/C1=C\c1ccc(O)cc1 | > 50
7 | CCOc1cc(/C=C2\S/C(=N\Cc3ccccc3)NC2=O)ccc1O | > 50
8 | COc1ccc(/C=C2\S/C(=N\Cc3ccccc3)NC2=O)cc1[N+](=O)[O-] | > 50
9 | O=C1N/C(=N/Cc2ccccc2)S/C1=C\c1ccc(Cl)c([N+](=O)[O-])c1 | > 50
10 | N=C1NC(=O)/C(=C/c2ccc(O)c(C(=O)O)c2)S1 | > 50

The compounds below were run against T1, Glycogen synthase kinase-3 beta (assay: Inhibition of His-tagged full length human recombinant GSK-3beta expressed in Baculovirus using Ser/Thr9 peptide as substrate by Z' LYTE assay).
Target sequence in this assay (P49841 whole entry): as the sequence (P49841 whole entry, looked up) above

Row | SMILES | IC50 [nM]
11 | O=C1N/C(=N/c2ccccc2)S/C1=C\c1ccc(F)cc1 | 40
12 | COc1ccc(/C=C2\S/C(=N\Cc3ccccc3)NC2=O)cc1OC | 44.3
13 | O=C1N=C(NCc2ccccc2)S/C1=C\c1ccc(O)cc1 | 27.1
14 | COc1ccc(/C=C2\SC(=N)NC2=O)cc1OC | 80.5
15 | O=C1N/C(=N/c2ccccc2)S/C1=C\c1ccc(O)cc1 | 27.7
16 | CCOc1cc(/C=C2\S/C(=N\Cc3ccccc3)NC2=O)ccc1O | 51.7
17 | COc1ccc(/C=C2\S/C(=N\Cc3ccccc3)NC2=O)cc1[N+](=O)[O-] | 2.1
18 | O=C1N/C(=N/Cc2ccccc2)S/C1=C\c1ccc(Cl)c([N+](=O)[O-])c1 | 24
19 | N=C1NC(=O)/C(=C/c2ccc(O)c(C(=O)O)c2)S1 | 84.8

These compounds were tested against Cyclin-dependent kinase 2 (Homo sapiens) (UniProt P24941) (assay: Inhibition of GST-tagged human recombinant CDK2 assessed as residual activity at 2 uM using Ser/Thr12 peptide as substrate by Z' LYTE assay relative to control).

Row | SMILES | Activity [%]
20 | O=C1N/C(=N/c2ccccc2)S/C1=C\c1ccc(F)cc1 | 68.9
21 | COc1ccc(/C=C2\S/C(=N\Cc3ccccc3)NC2=O)cc1OC | 53.8
22 | O=C1N=C(NCc2ccccc2)S/C1=C\c1ccc(O)cc1 | 63.2
23 | O=C1N/C(=N/c2ccccc2)S/C1=C\c1ccc(O)cc1 | 69.6
24 | CCOc1cc(/C=C2\S/C(=N\Cc3ccccc3)NC2=O)ccc1O | 39.1
25 | COc1ccc(/C=C2\S/C(=N\Cc3ccccc3)NC2=O)cc1[N+](=O)[O-] | 73
26 | O=C1N/C(=N/Cc2ccccc2)S/C1=C\c1ccc(Cl)c([N+](=O)[O-])c1 | 68.4
